In patent US20260306500A1, “METHOD OF INHIBITING ADENOSINE TRIPHOSPHATE SECRETION, METHOD OF INHIBITING HEPATIC STELLATE CELL ACTIVATION, METHOD OF DEACTIVATING HEPATIC STELLATE CELL, METHOD OF TREATING HEPATIC FIBROSIS, METHOD OF TREATING NON-ALCOHOLIC STEATOHEPATITIS, AND METHOD OF TREATING PSORIASIS” (Kurume University, priority 2023, published 2026):

How the values were obtained:
[1] = test system: LX-2 cells; assay: ATP secretion from LX-2 cells; format: cell-based, human
Method: Cells of the immortalized human hepatic stellate cell line LX-2 (manufactured by Merck) was cultured in Dulbecco's modified Eagle's medium (DMEM, 4500 mg/l Glucose, D5796, manufactured by Sigma-Aldrich) supplemented with inactivated 2% fetal bovine serum (FBS), 10 IU/ml penicillin, and 10 IU/ml streptomycin in a T25 or T75 flask at 37° C. in 5% CO2.
LX-2 cells (2×10^6 cells per well) were seeded in a collagen-coated 6-well culture dish containing Dulbecco's modified Eagle's medium (manufactured by Sigma-Aldrich) supplemented with 10 IU/ml penicillin, […] 2% fetal bovine serum, and cultured in 5% CO2 at 37° C. After 3 days, the LX-2 cells were washed twice and preincubated in Krebs-Ringer buffer (10 mM HEPES-Tris, pH 7.4, 128 mM NaCl, 1.9 mM KCl, 1.2 mM KH2PO4, 1.3 mM MgSO4, 26 mM NaHCO3, 2.4 mM CaCl2, 10 mM glucose, 0.2% (w/v) bovine serum albumin) with or without 10 μM clodronate. The LX-2 cells were then stimulated with Krebs-Ringer buffer supplemented with ionomycin (manufactured by Cayman) regardless of whether clodronate was present or not. For the stimulation, 1 mM EGTA (manufactured by Dojindo) or 10 μM serotonin (5-HT, manufactured by Sigma-Aldrich) was used. The ATP concentration in the culture supernatant was measured in the same manner as in Example 6.
For an siRNA experiment, a TriFECTa (trademark) RNAi Kit (manufactured by Integrated DNA Technologies) was used. A scramble RNA (scRNA) as a control siRNA, or a VNUT-specific siRNA, was incubated with Lipofectamine 3000 reagent (manufactured by Invitrogen) in OptiMEM reduced-serum medium (#31985070, manufactured by Gibco) at room temperature for 15 minutes, and then added directly to the cultured cells. The LX-2 cells as the transfection mixture were plated, and then cultured for 48 hours. The base sequences of VNUT siRNA forward and VNUT siRNA reverse, used for the above kit, are shown in SEQ ID NOs: 1 and 2, respectively. A positive control for an endogenous gene (#51-01-08-02) and a negative control (#51-01-14-03) were used.

[2] = test system: chromaffin granule membrane; assay: ATP transport (uptake of radiolabeled ATP) in chromaffin granule membrane vesicles; format: biochemical, cattle; settings: role: inhibitor, 1 mM 3H-ATP
Method: Chromaffin granule membranes were prepared from adrenal glands collected from slaughtered cattle according to Reference A (Nathan Nelson et al., 1988, Chromaffin Granule Proton Pump, Methods in Enzymology, 157, 619-633). Chromaffin granule membranes prepared by sucrose density gradient centrifugation were suspended in 2 ml of SME buffer (20 mM MOPS-tris (pH 7.0), 0.3 M sucrose, 5 mM EDTA, 10 μg/ml leupeptin, and 10 μg/ml pepstatin)+25% glycerol, and the resulting suspension was aliquoted and stored at −80° C. Under these conditions, the ATP transport activity, the V-ATPase activity, and the catecholamine transport activity remain fully active for at least one year.
An ATP transport inhibition experiment for the chromaffin granule membrane was carried out according to Reference B (Yoshinori Moriyama et al., 2022, Is the vesicular nucleotide transporter a molecular target of eicosapentaenoic acid?, Frontiers in Pharmacology, 103389). About 20 μg of chromaffin granule membranes were added to 0.5 ml of measurement buffer (20 mM MOPS-tris (pH 7.0), 0.3 M sucrose, 5 mM potassium chloride, 5 mM magnesium acetate, 5 mM creatine phosphate, 10 units of creatine kinase, and 1 mM 3[H]-ATP [15 KBq/assay]), followed by incubation at 30° C. for 1 hour. Through a Millipore MCE membrane filter with a pore size […], 0.2 ml of the reaction liquid was filtered by suction. Thereafter, the filter was washed with 10 ml of 20 mM MOPS-tris (pH 7.0), 0.3 M sucrose, 5 mM potassium chloride, and 5 mM magnesium acetate, and dissolved in 10 ml of Clear-sol II (manufactured by Nacalai Tesque, Inc.). The radioactivity was then measured using a liquid scintillation counter (N=3).
The reaction was initiated by adding 50 mM ^3[H]-ATP to a final concentration of 1 mM. The 50 mM ^3[H]-ATP was prepared by mixing an ATP-tris solution (manufactured by Sigma-Aldrich) with [2,8-^3H]adenosine triphosphate tetrasodium salt (26.0 Ci/mmol) (manufactured by New England Nuclear). PEP was used as a test reagent, and pyruvic acid was used as a negative control. Five minutes before the addition of ATP, PEP or pyruvic acid, as a solution in 20 mM MOPS-tris (pH 7.0), 0.3 M sucrose, 5 mM potassium chloride, and 5 mM magnesium acetate, was added to the measurement liquid to a final PEP concentration of 0.02, 0.05, 0.1, 0.2, 0.4, or 1 mM, or to a final pyruvic acid concentration of 0.5 or 1 mM.
Chromaffin granule membrane vesicles were prepared in the same manner as in Example 5, and uptake of radiolabeled ATP into the vesicles was measured. Transport activity of catecholamine (dopamine) and ATP-dependent proton transport by V-ATPase were also measured in the same manner as in Example 5.

[3] = test system: human epidermal keratinocytes; assay: ATP secretion from human epidermal keratinocytes promoted by ionomycin; format: cell-based; settings: 5 μM ionomycin as stimulant, keratinocytes
Method: Human epidermal keratinocytes (Cryopreserved HEK, Lot 1758, Cell Applications Inc.) were cultured using an Epivita Keratinocyte Growth Medium Kit according to the manufacturer's instructions. The procedure was as follows. A supplement medium was added to a hydrocortisone-containing basal medium included in the medium preparation kit to prepare a complete medium. The medium in the dish was removed by aspiration. The cells were washed with 5 ml of BSS (Gbco), and then the BSS was removed by aspiration. After addition of 5 to 6 ml of trypsin/EDTA solution (Gbco), the dish was incubated at 37° C. for 2 minutes. After addition of 5 ml of trypsin neutralization solution, the resulting cell suspension was transferred into two 15-ml Falcon tubes, and centrifuged at 200×g for 5 minutes. The supernatant was removed by aspiration, and the pelleted cell cluster was suspended in 2 ml of the medium at 4.5×10^5 cells/ml. An aliquot of the resulting cell suspension was cryopreserved, while another aliquot was cultured and subjected to measurement.
ATP secretion by human epidermal keratinocytes (hereinafter referred to as “keratinocytes”) was measured. Regarding control solutions, Krebs-Ringer HEPES supplemented with 0.2% BSA and 25 mM glucose (hereinafter also referred to as “Krebs/Iono(−)”) was used as a negative control, and a solution prepared by adding 5 μM ionomycin to this solution (hereinafter also referred to as “Krebs/Iono(+)”) was used as a positive control for ATP secretion. Ionomycin is a Ca^2+ ionophore. Addition of ionomycin to cells is known to promote influx of extracellular Ca^2+ into the cells to increase the intracellular Ca^2+ concentration, resulting in enhancement of ATP secretion. Test solutions were prepared by adding clodronate to Krebs/Iono(−) or Krebs/Iono(+) to a final concentration of 0.1 μM (hereinafter also referred to as “Clo/Iono(−)” or “Clo/Iono(+)”, respectively) (N=3).
Keratinocytes were cultured at 2.5×10^4 cells/well in a 24-well plate at 37° C. in 5% CO2 for 4 days. The medium was removed by aspiration, replaced with Krebs/Iono(−) or Clo/Iono(−), and incubated at 37° C. for 6 hours. These solutions were then removed by aspiration, and the content of each well incubated with Krebs/Iono(−) was replaced with 300 μl of a control solution (Krebs/Iono(−) or Krebs/Iono(+)), while the content of each well incubated with Clo/Iono(−) was replaced with 300 μl of a test solution (Clo/Iono(−) or Clo/Iono(+)). After further incubation at 37° C. for 20 minutes, 200 μl of the supernatant was collected. The collected supernatant was immediately treated on a heat block at 95° C. for 10 minutes, to inactivate ectonucleotidase. ATP in the supernatant was quantified using a Dojindo ATP assay kit−Luminescence (manufactured by Dojindo Laboratories).
Keratinocytes were cultured in the same manner as in Example 1, and ATP secretion from the keratinocytes was measured. Krebs/Iono(−), or a solution prepared by adding 10 μM imeglimin, 0.1 μM eicosapentaenoic acid (EPA), 1 μM EPA, or 10 μM clodronate to Krebs/Iono(−) was used (N=4).
After culturing keratinocytes, the medium was removed by aspiration, and replaced with Krebs/Iono(−), or Krebs/Iono(−) supplemented with 10 μM imeglimin, 0.1 μM EPA, 1 μM EPA, or 10 μM clodronate, followed by incubation for 6 hours. Subsequently, the solution was replaced with either a control solution (Krebs/Iono(−) or Krebs/Iono(+)) or a test solution (Krebs/Iono(+) supplemented with 10 μM imeglimin, 0.1 μM EPA, 1 μM EPA, or 10 μM clodronate), followed by incubation at 37° C. for 20 minutes and then collection of 200 μl of the supernatant. The collected supernatant was immediately treated on a heat block at 95° C. for 10 minutes to inactivate ectonucleotidase. ATP in the supernatant was quantified using a Dojindo ATP assay kit—Luminescence (manufactured by Dojindo Laboratories). […]

[4] = test system: mouse auricle; assay: Imiquimod-induced psoriasis model, comparison with an anti-TNFα antibody (Example 19); format: in vivo; settings: imeglimin 40 mg/kg oral daily or infliximab 100 μg/mouse i.v. Days 1, 3, 5
Method: The dorsal hair of mice was shaved and depilated (Day 0). To each of the left auricle and the depilated back of each mouse, 62.5 mg of 5% imiquimod cream (Beselna Cream 5%) was applied once daily a total of seven times (Days 1 to 7) in accordance with Example 18, to induce imiquimod-induced psoriasis (IMQ group). In the IMQ+IMG group, mice received oral administration of imeglimin (40 mg/kg) once daily (Day 1 to 7) after the imiquimod application. […] Thickness of the auricle was measured, and the degrees of erythema, desquamation, and infiltration in the affected area were rated on Days 1, 3, 5, 7, and 8 according to the PASI scoring of the DermNET Dermatology Resource (none: 0, mild: 1, moderate: 2, severe: 3, and very severe: 4). The resulting values were used to calculate the PASI score.
Further, for an auricle excised on Day 8, immunohistochemical staining was performed in the same manner as in Example 18, and auricular sections were imaged using a fluorescence microscope (BZ-X710; manufactured by Keyence Corporation).

## NCCc1c[nH]c2ccc(O)cc12 [5-HT, serotonin]
[1]; 10 μM serotonin (5-HT) (FIG. 25)
  ATP secretion from the LX-2 cells: promoted ATP secretion

## O=C(O)CN(CCOCCOCCN(CC(=O)O)CC(=O)O)CC(=O)O [EGTA]
[1]; 1 mM EGTA, chelating of Ca2+, N=6 (FIG. 21)
  ionomycin-induced ATP secretion: strongly inhibited

## C[C@H](O)C(=O)O [L-lactic acid]
[2]
  inhibitory activity on ATP transport: no inhibitory activity was found

## NC(=O)c1ccc[n+]([C@@H]2O[C@H](COP(=O)([O-])OP(=O)(O)OC[C@H]3O[C@@H](n4cnc5c(N)ncnc54)[C@H](O)[C@@H]3O)[C@@H](O)[C@H]2O)c1 [NAD+]
[2]
  inhibitory activity on ATP transport: no inhibitory activity was found

## CC(=O)SCCNC(=O)CCNC(=O)[C@H](O)C(C)(C)COP(=O)(O)OP(=O)(O)OC[C@H]1O[C@@H](n2cnc3c(N)ncnc32)[C@H](O)[C@@H]1OP(=O)(O)O [acetyl-CoA]
[2]
  inhibitory activity on ATP transport: no inhibitory activity was found

## O=C(O)CC(O)(CC(=O)O)C(=O)O [citric acid]
[2]
  inhibitory activity on ATP transport: no inhibitory activity was found

## O=C(CO)[C@@H](O)[C@H](O)[C@H](O)COP(=O)(O)O [fructose-6-phosphate]
[2]
  inhibitory activity on ATP transport: no inhibitory activity was found

## O=C[C@H](O)[C@@H](O)[C@H](O)[C@H](O)COP(=O)(O)O [glucose-6-phosphate]
[2]
  inhibitory activity on ATP transport: no inhibitory activity was found

## C[C@H](CCC(=O)O)C[C@H](C)C[C@H](C)C(=O)/C=C(\O)[C@H](C)C[C@H](C)C/C=C/[C@@H](C)[C@@H](O)[C@@H](C)[C@@H](O)C[C@@H]1CC[C@@](C)([C@H]2CC[C@@](C)([C@@H](C)O)O2)O1 [ionomycin]
[3]
  ATP secretion: promotes ATP secretion
[1]; ionomycin, N=3 (FIG. 20)
  secretion of ATP by the LX-2 cells over time: increased secretion of ATP

## O=C(O)C[C@H](O)C(=O)O [malic acid]
[2]
  inhibitory activity on ATP transport: no inhibitory activity was found

## O=C(O)CC(=O)C(=O)O [oxaloacetic acid]
[2]
  inhibitory activity on ATP transport: no inhibitory activity was found

## CC(=O)C(=O)O [pyruvic acid]
[2]
  inhibitory activity on ATP transport: no inhibitory activity was found
[2]; up to 1 mM pyruvic acid
  inhibition of ATP transport: did not inhibit ATP transport

## infliximab: infliximab (manufactured by Nichi-Iko Pharmaceutical Co., Ltd.), an anti-TNFα antibody as an existing drug
[4]; N=5 (FIG. 38)
  erythema (excepted from the symptoms reduced): except erythema
[4]; N=5 (FIGS. 37-41)
  typical psoriatic symptoms induced by imiquimod, except erythema (thickness, desquamation, infiltration, PASI score): reduced
